Patent EP1228058B1, “BENZOPYRANYL GUANIDINE DERIVATIVES, PROCESS FOR PREPARATION THEREOF, AND PHARMACEUTICAL COMPOSITIONS CONTAINING THEM” (Dongbu Hannong Chemical Co., Ltd., priority 1999, dated 2001)
pIC50: −log10 of the molar value.

Key:
[1] = test system: rat aorta; test: Vasodilation effects on isolated blood vessels of rats (methoxamine-constricted aortic rings); format: cell-based; settings: isolated rat aorta constricted with methoxamine (3 uM); read-out: Vasodilation Activity (in Vitro, rat aorta) (IC50)
Source text: Male Sprague-Dawly rats (350-450 g, obtained from the Experimental Animal Team of the Korea Research Institute of Chemical Technology) were knocked unconscious by hitting the occipital region, sacrificed by cervical dislocation, and underwent thoracotomy. After being quickly removed, the thoracic aorta was deprived of the adipose tissue and cut into aortic rings of 3 mm width. The aorta was lightly rubbed with a modified Krebs Henseleit buffer (Physiological Salt Solution, PSS) soaked cotton club to remove the inner epithelial layer therefrom. While being suspended in an organ bath containing a physiological buffer, the vascular tissue was allowed to equilibrate under a resting tension of 2 g and then, stand for 1 hour at 37 °C for stabilization with a supply of a carbogen consisting of 95% O2-5% CO2.
Thereafter, the vascular tissue was constricted with 10^-5 M phenylephrine and washed several times with PSS and this procedure was repeated again to ensure the stable reacivity of vascular smooth muscle to repetitive constriction/dilatation.
In addition, 3x10^-6 M methoxamine was used to induce an intensive constriction in the vascular smooth muscle. When the vasoconstriction induced by the methoxamine reached and maintained a maximum, test compounds and controls were cumulatively added to the organ baths in concentrations of 1, 3, 10 and 30 uM so as to induce vasodilatation. As for the controls, they were Cromakalim and BMS-180448 (the compounds of the chemical formula 2), both known to be the first generation KATP activator with potent vasodilatation and cardioprotection effects.
Following the addition of the drugs, the change in the maximal constriction induced by methoxamine was calculated to plot a concentration-dilation response curve. Through a linear regression analysis, IC50, the drug concentration at which the vascular tissue is 50% dilated, was obtained for each drug.

[2] = Acute oral toxicity test in rats; settings: rat, in vivo, single oral dose in 0.5% methyl cellulose, read-out: lethal dose (LD50) for oral administration
Method: In this test six-week old SPF SD rats were used with two rats assigned to each group. The compounds of examples 1, 2, 3, 5, 7, 8, 9, 10, 13, 14, 15, 19, 22, 23, 24, 25, 26, 28, 29, 30, 31, 32, 33, 34, 35, 36, 37, 38, 39, 40, 41, 44, 46, 47, 48, 49, 51, 52, 57, 58, 60, 62, 64, 67, 68, 69, 71 and 72 were suspended in 0.5% methyl cellulose, respectively, and administered orally at a single dose of 1 g/kg using a ball-tipped needle. The dosing volume was 10 ml/kg. […] All survivors at the end of the observation period underwent laparotomy under ether anesthesia and the blood samples were taken from the abdominal aorta for hematological tests and biochemical analysis. After sacrificing the animals, autopsy was performed for macroscopic observation of the organs and tissues. Tissue samples of vital organs from macroscopic legion were removed and fixed in 10% neutral buffered formalin solution, then processed by standard procedures for histopathology and examined under light microscope. There were no significant changes in clinical symptoms, body weight and mortalities. Also in hematology, serum chemistry parameters and macroscopic observation, no drug-related changes were observed.

[3] = test system: HUVEC; test: Inhibition of HUVEC tube formation on Matrigel; format: cell-based, Human; parameters: key: -: no effect; +/-: week effect; +: moderate effect; ++: strong effect
Method: HUVEC (Human umbilical vein endothelial cells, ATCC CRL-1730) were cultured, and tubulogenesis was induced in vascular endothelial cells by plating them onto the surface of Matrigel for several hours. The effects on tube formation of the test compounds were compared with the vehicle treated controls, then confirmed their in vitro anti-angiogenic effect indirectly.

SMILES | pIC50 [1] | LD50 [2] [mg/kg] | Inhibitory Effects on Tube Formation ([3]; 10 uM) | Inhibitory Effects on Tube Formation ([3]; 100 uM)
CC1(C)Oc2ccc(C#N)cc2C(N2CCCC2=O)C1O (centres unmarked) [Cromakalim, reference compound] | 7.17 |  |  | 
COC(OC)[C@]1(C)Oc2ccc([N+](=O)[O-])cc2[C@@H](NC(=NC#N)Nc2ccc(Cl)cc2)[C@@H]1O [Example 2, (2R, 3S, 4R)-N''-cyano-N-(6-nitro-3,4-dihydro-3-hydroxy-2-methyl-2-dimethoxymethyl-2H-benzopyran-4-yl)-N'-(4-chlorophenyl)guanidine] |  | > 1000 | + | ++
COC(OC)[C@@]1(C)Oc2ccc([N+](=O)[O-])cc2[C@H](NC(=NC#N)Nc2ccc(Cl)cc2)[C@H]1O [Example 10, (2S, 3R, 4S)-N''-cyano-N-(6-nitro-3,4-dihydro-3-hydroxy-2-methyl-2-dimethoxymethyl-2H-benzopyran-4-yl)-N'-(4-chlorophenyl)guanidine] |  | > 1000 | + | ++
COC(OC)[C@@]1(C)Oc2ccc([N+](=O)[O-])cc2[C@@H](NC(=NC#N)Nc2cccc(C(F)(F)F)c2)[C@@H]1O [Example 15, (2S, 3S, 4R)-N''-cyano-N-(6-nitro-3,4-dihydro-3-hydroxy-2-methyl-2-dimethoxymethyl-2H-benzopyran-4-yl)-N'-(3-trifluoromethylphenyl)guanidine] | 4.85 | > 1000 |  | 
COc1ccc(NC(=NC#N)N[C@H]2c3cc([N+](=O)[O-])ccc3O[C@](C)(C(OC)OC)[C@@H]2O)cc1 [Example 16, (2S, 3R, 4S)-N''-cyano-N-(6-nitro-3,4-dihydro-3-hydroxy-2-methyl-2-dimethoxymethyl-2H-benzopyran-9-yl)-N'-(4-methoxyphenyl) guanidine] |  |  | +/- | +/-
COC(OC)[C@@]1(C)Oc2ccc([N+](=O)[O-])cc2[C@@H](NC(=NC#N)NCc2cccc([N+](=O)[O-])c2)[C@@H]1O [Example 52, (2S, 3S, 4R)-N''-cyano-N-(6-nitro-3,4-dihydro-3-hydroxy-2-methyl-2-dimethoxymethyl-2H-benzopyran-4-yl)-N'-(3-nitrobenzyl)guanidine] |  | > 1000 | +/- | ++
COC(OC)[C@]1(C)Oc2ccc(N)cc2[C@H](NC(=NC#N)NCc2ccccc2)[C@H]1O [Example 58, (2R, 3R, 4S)-N''-cyano-N-(6-amino-3,4-dihydro-3-hydroxy-2-methyl-2-dimethoxymethyl-2H-benzopyran-4-yl)-N'-benzylguanidine] |  | > 1000 |  | 
C[C@]1(C2OCCO2)Oc2ccc([N+](=O)[O-])cc2[C@@H](NC(=NC#N)NCc2ccccc2)[C@@H]1O [Example 60, (2S, 3S, 4R)-N''-cyano-N-(6-nitro-3,4-dihydro-3-hydroxy-2-methyl-2-([1,3]dioxolan-2-yl)-2H-benzopyran-4-yl)-N'-benzylguanidine] |  | > 1000 |  | 
C[C@]1(C2OCCCO2)Oc2ccc([N+](=O)[O-])cc2[C@@H](NC(=NC#N)NCc2ccccc2)[C@@H]1O [Example 62, (2S, 3S, 4R) -N''-cyano-N-(6-nitro-3,4-dihydro-3-hydroxy-2-methyl-2-([1,3]dioxan-2-yl)-2H-benzopyran-4-yl)-N'-benzylguanidine] |  | > 1000 |  | 
CC1(C)COC([C@@]2(C)Oc3ccc([N+](=O)[O-])cc3[C@@H](NC(=NC#N)NCc3ccccc3)[C@@H]2O)OC1 [Example 64, (2S, 3S, 4R)-N''-cyano-N-(6-nitro-3,9-dihydro-3-hydroxy-2-methyl-2-([1,3]-5,5-dimethyldioxan-2-yl)-2H-benzopyran-4-yl)-N'-benzyl guanidine] |  | > 1000 |  | 
CCOC(OCC)[C@@]1(C)Oc2ccc(N)cc2[C@@H](NC(=NC#N)NCc2ccccc2)[C@@H]1O [Example 67, (2S, 3S, 4R)-N''-cyano-N-(6-amino-3,4-dihydro-3-hydroxy-2-methyl-2-diethoxymethyl-2H-benzopyran-4-yl)-N'-benzylguanidine] |  | > 1000 |  | 
COC(=O)c1ccc2c(c1)[C@@H](NC(=NC#N)NCc1ccccc1)[C@H](O)[C@@](C)(C(OC)OC)O2 [Example 68, (2S, 3S, 4R)-N''-cyano-N-(6-methoxycarbonyl-3,4-dihydro-3-hydroxy-2-methyl-2-dimthoxymethyl-2H-benzopyran-4-yl)-N'-benzylguanidine] |  | > 1000 |  | 
COC(=O)c1ccc2c(c1)[C@@H](NC(=NC#N)NCc1ccccc1)[C@H](O)[C@](C)(C(OC)OC)O2 [Example 69, (2R, 3S, 4R)-N''-cyano-N (6-methoxycarbonyl-3,4-dihydro-3-hydroxy-2-methyl-2-dimthoxymethyl-2H-benzopyran-4-yl)-N'-benzylguanidine] |  | > 1000 |  | 
COC(OC)[C@@]1(C)Oc2c(N)cccc2[C@@H](NC(=NC#N)NCc2ccccc2)[C@@H]1O [Example 71, (2S, 3S, 4R)-N''-cyano-N-(8-amino-3,4-dihydro-3-hydroxy-2-methyl-2-dimthoxymethyl-2H-benzopyran-4-yl)-N'-benzylguanidine] |  | > 1000 |  | 
COC(OC)[C@]1(C)Oc2c(N)cccc2[C@@H](NC(=NC#N)NCc2ccccc2)[C@@H]1O [Example 72, (2R, 3S, 4R)-N''-cyano-N-(8-amino-3,4-dihydro-3-hydroxy-2-methyl-2-dimthoxymethyl-2H-benzopyran-4-yl)-N'-benzylguanidine] |  | > 1000 |  | 
